Data on twelve compounds can be found in ChEMBL document CHEMBL2424577, “Cytotoxicity and DNA-binding property of water-soluble naphthalene diimide derivatives bearing 2-oligoethoxy ethanamine side chain end-labeled with tertiary amino groups” (Med Chem Res, 2013).

The source made the active and inactive calls. No cut-off for these calls is given here.

System in one assay: not listed separately
Put plainly: Binding affinity to G-quadruplex DNA (unknown origin) in phosphate buffer at pH 7.4 at 2 x 10 '-5 M by CD spectra analysis.
Conditions: not given
For `CN(C)CCN1C(=O)c2ccc3c4c(c(NCCOCCOCCOCCN5CCOCC5)cc(c24)C1=O)C(=O)N(CCN(C)C)C3=O`, the outcome was Active.
On the same count and under the same terms, then `CN(C)CCN1C(=O)c2ccc3c4c(c(NCCOCCOCCN5CCOCC5)cc(c24)C1=O)C(=O)N(CCN(C)C)C3=O`, with “Active”; and `CN(C)CCN1C(=O)c2ccc3c4c(c(NCCOCCN5CCOCC5)cc(c24)C1=O)C(=O)N(CCN(C)C)C3=O`, with “Active”.

The next assay has as its system DNA. The assay can be described thus: Binding affinity to calf thymus DNA in phosphate buffer at pH 7.4 at 2 x 10 '-5 M by CD spectra analysis. The note with it: Bos taurus. It is filed as nucleic-acid assay.
As for `CN(C)CCN1C(=O)c2ccc3c4c(c(NCCOCCOCCOCCN5CCOCC5)cc(c24)C1=O)C(=O)N(CCN(C)C)C3=O`, the result was Active.
Same read-out and setting: under `CN(C)CCN1C(=O)c2ccc3c4c(c(NCCOCCOCCN5CCOCC5)cc(c24)C1=O)C(=O)N(CCN(C)C)C3=O` stands “Active”.
On the same count and under the same terms, then `CN(C)CCN1C(=O)c2ccc3c4c(c(NCCOCCN5CCOCC5)cc(c24)C1=O)C(=O)N(CCN(C)C)C3=O`, with “Active”.

System in the next assay: not listed separately
Put plainly: Binding affinity to G-quadruplex DNA (unknown origin) in phosphate buffer at pH 7.4 at 5 x 10 '-5 M by fluorescence spectroscopy.
Conditions: not given
Turning to `CN(C)CCN1C(=O)c2ccc3c4c(c(NCCOCCOCCOCCN5CCOCC5)cc(c24)C1=O)C(=O)N(CCN(C)C)C3=O`, the K came to 1.5 ×10⁴ /M.
On the same count and under the same terms, then `CN(C)CCN1C(=O)c2ccc3c4c(c(NCCOCCOCCN5CCOCC5)cc(c24)C1=O)C(=O)N(CCN(C)C)C3=O`, with 2.3 ×10⁴ /M; and `CN(C)CCN1C(=O)c2ccc3c4c(c(NCCOCCN5CCOCC5)cc(c24)C1=O)C(=O)N(CCN(C)C)C3=O`, with 6.8 ×10⁵ /M.

In the next assay the test system is DNA. Put plainly: Binding affinity to calf thymus DNA in phosphate buffer at pH 7.4 at 5 x 10 '-5 M by fluorescence spectroscopy. It is filed as nucleic-acid assay. The note with it: Bos taurus.
Turning to `CN(C)CCN1C(=O)c2ccc3c4c(c(NCCOCCOCCOCCN5CCOCC5)cc(c24)C1=O)C(=O)N(CCN(C)C)C3=O`, the K was 3.8 ×10⁵ /M.
The same measure, in the same setting: under `CN(C)CCN1C(=O)c2ccc3c4c(c(NCCOCCOCCN5CCOCC5)cc(c24)C1=O)C(=O)N(CCN(C)C)C3=O` stands 5.4 ×10⁵ /M; under `CN(C)CCN1C(=O)c2ccc3c4c(c(NCCOCCN5CCOCC5)cc(c24)C1=O)C(=O)N(CCN(C)C)C3=O`, 3.9 ×10⁶ /M.

System in a further assay: not listed separately
The assay can be described thus: Binding affinity to G-quadruplex DNA (unknown origin) in phosphate buffer at pH 7.4 assessed as hypochromicity at 5 x 10 '-5 M by Uv-Vis spectroscopy.
Conditions: not given
Take `CN(C)CCN1C(=O)c2ccc3c4c(c(NCCOCCOCCOCCN5CCOCC5)cc(c24)C1=O)C(=O)N(CCN(C)C)C3=O`: the Activity is 9%.
On the same count and under the same terms, then `CN(C)CCN1C(=O)c2ccc3c4c(c(NCCOCCOCCN5CCOCC5)cc(c24)C1=O)C(=O)N(CCN(C)C)C3=O`, with 11%.
On the same count and under the same terms, then `CN(C)CCN1C(=O)c2ccc3c4c(c(NCCOCCN5CCOCC5)cc(c24)C1=O)C(=O)N(CCN(C)C)C3=O`, with 13%.

The subject of another assay is DNA. The assay can be described thus: Binding affinity to calf thymus DNA in phosphate buffer at pH 7.4 assessed as hypochromicity at 5 x 10 '-5 M by Uv-Vis spectroscopy. The note with it: Bos taurus. The assay is classed as nucleic-acid assay.
Regarding `CN(C)CCN1C(=O)c2ccc3c4c(c(NCCOCCOCCOCCN5CCOCC5)cc(c24)C1=O)C(=O)N(CCN(C)C)C3=O`, the Activity was determined as 25%.
Same read-out and setting: then `CN(C)CCN1C(=O)c2ccc3c4c(c(NCCOCCOCCN5CCOCC5)cc(c24)C1=O)C(=O)N(CCN(C)C)C3=O`, with 28%.
The same measure, in the same setting: then `CN(C)CCN1C(=O)c2ccc3c4c(c(NCCOCCN5CCOCC5)cc(c24)C1=O)C(=O)N(CCN(C)C)C3=O`, with 31%.

System in the next assay: not listed separately
The assay can be described thus: Binding affinity to G-quadruplex DNA (unknown origin) in phosphate buffer at pH 7.4 at 5 x 10 '-5 M by Uv-Vis spectroscopy.
Conditions: not given
`CN(C)CCN1C(=O)c2ccc3c4c(c(NCCOCCOCCOCCN5CCOCC5)cc(c24)C1=O)C(=O)N(CCN(C)C)C3=O` returned a Kb of 1.5 ×10⁴ /M.
On the same count and under the same terms, under `CN(C)CCN1C(=O)c2ccc3c4c(c(NCCOCCOCCN5CCOCC5)cc(c24)C1=O)C(=O)N(CCN(C)C)C3=O` stands 4.8 ×10⁴ /M; under `CN(C)CCN1C(=O)c2ccc3c4c(c(NCCOCCN5CCOCC5)cc(c24)C1=O)C(=O)N(CCN(C)C)C3=O`, 2.8 ×10⁵ /M.

Another assay relates to DNA. Put plainly: Binding affinity to calf thymus DNA in phosphate buffer at pH 7.4 at 5 x 10 '-5 M by Uv-Vis spectroscopy. The assay is classed as nucleic-acid assay. The note with it: Bos taurus.
On to `CN(C)CCN1C(=O)c2ccc3c4c(c(NCCOCCOCCOCCN5CCOCC5)cc(c24)C1=O)C(=O)N(CCN(C)C)C3=O`, for which the Kb worked out at 2.3 ×10⁵ /M.
Compound `CN(C)CCN1C(=O)c2ccc3c4c(c(NCCOCCOCCN5CCOCC5)cc(c24)C1=O)C(=O)N(CCN(C)C)C3=O` yielded a Kb of 4.5 ×10⁵ /M.
The same measure, in the same setting: then `CN(C)CCN1C(=O)c2ccc3c4c(c(NCCOCCN5CCOCC5)cc(c24)C1=O)C(=O)N(CCN(C)C)C3=O`, with 2.1 ×10⁶ /M.

For a further assay, the system named is A549. The assay can be described thus: Antiproliferative activity against human A549 cells after 48 hrs by MTT assay. The assay is classed as functional, cell-based. The note with it: A549, 48 h.
The term IC50 denotes the concentration that inhibits the measured activity by half. In the case of `CN(C)CCN1C(=O)c2ccc3c4c(c(NCCOCCN5CCCC5)cc(c24)C1=O)C(=O)N(CCN(C)C)C3=O`, the midpoint of inhibition, the IC50, lay at 2030 nM.
Still for that read-out and setting: then `CN(C)CCN1C(=O)c2ccc3c4c(c(NCCOCCN5CCCCC5)cc(c24)C1=O)C(=O)N(CCN(C)C)C3=O`, with 2190 nM.
In turn, `CN(C)CCN1C(=O)c2ccc3c4c(c(NCCOCCOCCOCCN5CCCCC5)cc(c24)C1=O)C(=O)N(CCN(C)C)C3=O` yielded an IC50 of 6870 nM.
Take `CN(C)CCN1C(=O)c2ccc3c4c(c(NCCOCCOCCOCCN5CCOCC5)cc(c24)C1=O)C(=O)N(CCN(C)C)C3=O`: the half-inhibitory concentration (IC50) was determined as 2530 nM.
On the same count and under the same terms, under `CN(C)CCN1C(=O)c2ccc3c4c(c(NCCOCCOCCOCCN5CCCC5)cc(c24)C1=O)C(=O)N(CCN(C)C)C3=O` stands 7120 nM; under `CN(C)CCN1C(=O)c2ccc3c4c(c(NCCOCCOCCN5CCOCC5)cc(c24)C1=O)C(=O)N(CCN(C)C)C3=O`, 2830 nM; under `CN(C)CCN1C(=O)c2ccc3c4c(c(NCCOCCOCCN5CCCC5)cc(c24)C1=O)C(=O)N(CCN(C)C)C3=O`, 2910 nM.
On the same count and under the same terms, then `CN(C)CCN1C(=O)c2ccc3c4c(c(NCCOCCN5CCN(C)CC5)cc(c24)C1=O)C(=O)N(CCN(C)C)C3=O`, with 2940 nM.
The same measure, in the same setting: then `CN(C)CCN1C(=O)c2ccc3c4c(c(NCCOCCOCCN5CCN(C)CC5)cc(c24)C1=O)C(=O)N(CCN(C)C)C3=O`, with 6870 nM; and `CN(C)CCN1C(=O)c2ccc3c4c(c(NCCOCCOCCOCCN5CCN(C)CC5)cc(c24)C1=O)C(=O)N(CCN(C)C)C3=O`, with 7420 nM; and `CN(C)CCN1C(=O)c2ccc3c4c(c(NCCOCCN5CCOCC5)cc(c24)C1=O)C(=O)N(CCN(C)C)C3=O`, with 2950 nM.
The compound `CN(C)CCN1C(=O)c2ccc3c4c(c(NCCOCCOCCN5CCCCC5)cc(c24)C1=O)C(=O)N(CCN(C)C)C3=O` came in with an IC50 of 2930 nM.

A further assay has as its system HeLa. The assay can be described thus: Antiproliferative activity against human HeLa cells after 48 hrs by MTT assay. It is filed as functional, cell-based.
Conditions: not given
For orientation: Tetrazolium dyes change colour on reduction, which living cells bring about.
`CN(C)CCN1C(=O)c2ccc3c4c(c(NCCOCCN5CCCC5)cc(c24)C1=O)C(=O)N(CCN(C)C)C3=O` yielded an IC50 of 2150 nM.
As for `CN(C)CCN1C(=O)c2ccc3c4c(c(NCCOCCN5CCCCC5)cc(c24)C1=O)C(=O)N(CCN(C)C)C3=O`, the IC50 was 2080 nM.
Same read-out and setting: then `CN(C)CCN1C(=O)c2ccc3c4c(c(NCCOCCOCCOCCN5CCCCC5)cc(c24)C1=O)C(=O)N(CCN(C)C)C3=O`, with 4060 nM; and `CN(C)CCN1C(=O)c2ccc3c4c(c(NCCOCCOCCOCCN5CCOCC5)cc(c24)C1=O)C(=O)N(CCN(C)C)C3=O`, with 3800 nM.
The same measure, in the same setting: then `CN(C)CCN1C(=O)c2ccc3c4c(c(NCCOCCOCCOCCN5CCCC5)cc(c24)C1=O)C(=O)N(CCN(C)C)C3=O`, with 5170 nM; and `CN(C)CCN1C(=O)c2ccc3c4c(c(NCCOCCOCCN5CCOCC5)cc(c24)C1=O)C(=O)N(CCN(C)C)C3=O`, with 5930 nM.
The compound `CN(C)CCN1C(=O)c2ccc3c4c(c(NCCOCCOCCN5CCCC5)cc(c24)C1=O)C(=O)N(CCN(C)C)C3=O` displayed an IC50 of 5000 nM.
Same read-out and setting: then `CN(C)CCN1C(=O)c2ccc3c4c(c(NCCOCCN5CCN(C)CC5)cc(c24)C1=O)C(=O)N(CCN(C)C)C3=O`, with 5190 nM; and `CN(C)CCN1C(=O)c2ccc3c4c(c(NCCOCCOCCN5CCN(C)CC5)cc(c24)C1=O)C(=O)N(CCN(C)C)C3=O`, with 9800 nM; and `CN(C)CCN1C(=O)c2ccc3c4c(c(NCCOCCOCCOCCN5CCN(C)CC5)cc(c24)C1=O)C(=O)N(CCN(C)C)C3=O`, with 2880 nM.
The same measure, in the same setting: then `CN(C)CCN1C(=O)c2ccc3c4c(c(NCCOCCN5CCOCC5)cc(c24)C1=O)C(=O)N(CCN(C)C)C3=O`, with 2610 nM.
Turning to `CN(C)CCN1C(=O)c2ccc3c4c(c(NCCOCCOCCN5CCCCC5)cc(c24)C1=O)C(=O)N(CCN(C)C)C3=O`, inhibition was half-maximal at 5950 nM (IC50).

Another assay concerns K562. Put plainly: Antiproliferative activity against human K562 cells after 48 hrs by MTT assay. The note with it: K562, 48 h. The assay is classed as functional, cell-based.
Regarding `CN(C)CCN1C(=O)c2ccc3c4c(c(NCCOCCN5CCCC5)cc(c24)C1=O)C(=O)N(CCN(C)C)C3=O`, the IC50 came out at 590 nM.
Same read-out and setting: then `CN(C)CCN1C(=O)c2ccc3c4c(c(NCCOCCN5CCCCC5)cc(c24)C1=O)C(=O)N(CCN(C)C)C3=O`, with 610 nM.
The same measure, in the same setting: then `CN(C)CCN1C(=O)c2ccc3c4c(c(NCCOCCOCCOCCN5CCCCC5)cc(c24)C1=O)C(=O)N(CCN(C)C)C3=O`, with 2940 nM; and `CN(C)CCN1C(=O)c2ccc3c4c(c(NCCOCCOCCOCCN5CCOCC5)cc(c24)C1=O)C(=O)N(CCN(C)C)C3=O`, with 5790 nM; and `CN(C)CCN1C(=O)c2ccc3c4c(c(NCCOCCOCCOCCN5CCCC5)cc(c24)C1=O)C(=O)N(CCN(C)C)C3=O`, with 7100 nM.
Still for that read-out and setting: under `CN(C)CCN1C(=O)c2ccc3c4c(c(NCCOCCOCCN5CCOCC5)cc(c24)C1=O)C(=O)N(CCN(C)C)C3=O` stands 1480 nM; under `CN(C)CCN1C(=O)c2ccc3c4c(c(NCCOCCOCCN5CCCC5)cc(c24)C1=O)C(=O)N(CCN(C)C)C3=O`, 2520 nM.
For `CN(C)CCN1C(=O)c2ccc3c4c(c(NCCOCCN5CCN(C)CC5)cc(c24)C1=O)C(=O)N(CCN(C)C)C3=O`, the IC50 worked out at 3030 nM.
Still for that read-out and setting: then `CN(C)CCN1C(=O)c2ccc3c4c(c(NCCOCCOCCN5CCN(C)CC5)cc(c24)C1=O)C(=O)N(CCN(C)C)C3=O`, with 2780 nM; and `CN(C)CCN1C(=O)c2ccc3c4c(c(NCCOCCOCCOCCN5CCN(C)CC5)cc(c24)C1=O)C(=O)N(CCN(C)C)C3=O`, with 3630 nM.
The same measure, in the same setting: under `CN(C)CCN1C(=O)c2ccc3c4c(c(NCCOCCN5CCOCC5)cc(c24)C1=O)C(=O)N(CCN(C)C)C3=O` stands 670 nM.
The same measure, in the same setting: under `CN(C)CCN1C(=O)c2ccc3c4c(c(NCCOCCOCCN5CCCCC5)cc(c24)C1=O)C(=O)N(CCN(C)C)C3=O` stands 1240 nM.
